Laboratory results reported in ChEMBL document CHEMBL5136997, “Sulfur-Containing Phenolic Compounds from the Cave Soil-Derived Aspergillus fumigatus GZWMJZ-152” (J Nat Prod, 2022).

Key:
Format in all cases: functional
[1] = Antioxidant activity assessed as DPPH radical scavenging activity incubated for 30 mins
PC-12 = test: Cytoprotective activity against H2O2-induced oxidative injury in rat PC-12 cells assessed as cell viability at 10 uM incubated for 24 hrs (reference value: 46.91 +/- 3.74%); settings: for viability at 10 µM: read-out: Activity
[2] = Antioxidant activity assessed as AAPH radical scavenging activity at 12.5 uM ORAC assay

IC50 [1] | Compound | viability at 10 µM (PC-12) | Activity (umolequiv/umol) [2] | Activity (PC-12)
11.9 µM | O=C1O[C@H]([C@@H](O)CO)C(O)=C1O [ASCORBIC ACID] |  |  | 
23.7 µM | COc1c(O)c(O)c(C)c2sc(CO)nc12 | 43.2% | 0.66 | 
> 100 µM | COC(=O)c1cc(O)cc(OC)c1C(=O)c1c(O)cc(C)cc1OC | 51.7% | 1.55 | 
 | VITAMIN E |  |  | 57.7%
> 100 µM | COC(=O)CSc1c(O)cc(OC)c(C(=O)c2c(O)cc(C)cc2OC)c1C(=O)OC | 49.1% | 1.65 | 
> 100 µM | COC(=O)c1c(C(=O)c2c(O)cc(C)cc2OC)c(OC)cc(O)c1[S@@+](C)[O-] |  | 1.76 | 
> 100 µM | COC(=O)c1c2c(cc(OC)c1C(=O)c1c(O)cc(C)cc1OC)O[C@@H](OC)CS2 |  | 0.08 | 
3.45 µM | COc1c(O)c(O)c(C)c2scnc12 | 47.9% | 0.73 | 
> 100 µM | COC(=O)c1c2c(cc(OC)c1C(=O)c1c(O)cc(C)cc1OC)OC(OC)CS2 (racemic) | 63.2% | 0.03 | 
17.3 µM | COC1=CC(=O)C(C)=C(O)C1=O | 50% | 0.67 | 
> 100 µM | COC(=O)c1c(SC[C@H]2NC(=O)CNC2=O)c(O)cc(OC)c1C(=O)c1c(O)cc(C)cc1OC | 54.2% | 0.78 | 
> 100 µM | COC(=O)c1c(C(=O)c2c(O)cc(C)cc2OC)c(OC)cc(O)c1[S+](C)[O-] (racemic) | 62.4% | 1.73 | 
> 100 µM | COC(=O)c1c2c(cc(OC)c1C(=O)c1c(O)cc(C)cc1OC)O[C@H](OC)CS2 |  | 0.02 | 
> 100 µM | COC(=O)c1c(C(=O)c2c(O)cc(C)cc2OC)c(OC)cc(O)c1[S@+](C)[O-] |  | 1.59 | 
